Experimental data taken from patent US20020061896A1, “Imidazopyrimidine nucleoside analogues with anti-HIV activity” (priority 1999, published 2002).
Where a name gives a salt, the structure may show the parent alone. Read-outs that look alike come from different tables or passages of the source.

Assays:
Type in all cases: cell-based
HIV [1] = test: Antiviral activity using T cells; details: Human immunodeficiency virus 1, T-cell
Experimental: (§1) HIV-1 infection assays with cell lines.
(§2) Laboratory strains of HIV-1, HIV-2, simian immunodeficiency virus, strains with know resistance to indicated drugs, or a low-passage (clinically derived) isolates are used to infect established cell lines by using a specific multiplicity of infection (MOI) of the virus for 1 hour at 37° C. prior to washing the cells and resuspension in medium containing increasing concentrations of drug (or test compound). At 4 to 6 days post-infection, drug-treated and control wells are analyzed for an HIV-1 induced cytopathic effect and/or for the presence of viral reverse transcriptase (RT) or viral p24 antigen in the culture medium (Buckheit and Swanstrom 1991; Ojwang et al. 1994, 1995a, Rando et al. 1995).

[2] = Cytotoxicity using T cells
HIV-1 = test: Antiviral activity (HIV-1 infection assays with cell lines); details: Human immunodeficiency virus 1
Experimental: as §1, §2

[3] = Cytotoxicity (table Antiviral Activity & Cytotoxicity); details: established cell lines
HIV [4] = test: HIV infection assay in cell lines (MT-2, MT-4, Jurkat)
Experimental: as §1, §2

[5] = Cytotoxicity in MT-2 cells; details: human
Cytotoxicity in PBMCs = details: human
Experimental: (§3) Peripheral blood mononuclear cells (PBMCs), Core blood mononuclear cells (CBMCs) and peripheral blood lymphocytes (PBLs) are isolated from the blood of HIV-1 negative and hepatitis B virus-negative (healthy) donors by using the Ficoll-Hypaque density gradient centrifugation technique and are then cultured as described by Gartner and Popovic (1990).

HIV [6] = test: HIV infection of PBMCs; details: Human immunodeficiency virus 1, PBMC, read-out: HIV IC50 (uM) PBMCs
Experimental: HIV-1 infection of PBMCs, CBMCs, and PBL.
as §3
PBMCs or CBMCs (2×10^5 cells/well) were infected with various isolates of HIV-1 at an MOI of 0.01. After 2 hours at 37C the cells are washed and treated with various concentrations of drug or test compound (Buckheit and Swanstrom 1991; Ojwang et al. 1995a). Seven days post-infection, HIV-1 replication was analyzed by the measuring the levels of RT or p24 in the culture medium.

[7] = antiviral activity, read-out: IC50
[8] = Human immunodeficiency virus 1, MT2, read-out: HIV IC50 (uM) MT-2
[9] = peripheral blood mononuclear cells (PBMCs), read-out: CC50 (uM) PBMCs

| IC50 (HIV [1]) [µM] | SMILES | CC50 [2] [µM] | CC50 [3] [µM] | also measured |
| --- | --- | --- | --- | --- |
| 0.31 | O=c1n(C2CO[C@H](CO)O2)ccc2nc(-c3ccc(F)cc3)cn12 (stereo in doubt) [Compound 43, 2-(4-FLUOROPHENYL)-6-[(2S,4S)-2- HYDROXYMETHYL-1,3-DIOXOLAN-4-YL]- 5,6-DIHYDRO[1,3]DIAZOLO[1,2- C][1,3]DIAZIN-5-ONE] | > 100 | – | – |
| 9.7 | O=c1n([C@@H]2CC[C@H](CO)O2)ccc2nc(-c3ccc([N+](=O)[O-])cc3)cn12 [Compound 31, 6-[(2S,5R)-5-HYDROXYMETHYL OXOLAN-2-YL]-2-(4-NITROPHENYL)-5,6- DIHYDRO[1,3]-DIAZOLO[1,2-C][1,3]DIAZIN-5-ONE] | 45 | – | – |
| 7 | O=c1n([C@H]2CC[C@@H](CO)O2)ccc2nc(-c3ccc([N+](=O)[O-])cc3)cn12 [Compound 32, 2-(4- NITROPHENYL)-6-[(2R,5S)-5- HYDROXYMETHYLOXOLAN-2-YL]-5,6- DIHYDRO[1,3]-DIAZOLO[1,2-C][1,3]DIAZIN-5-ONE] | > 100 | – | – |
| 4 | O=c1n([C@@H]2CC[C@H](CO)O2)cc(F)c2nc(-c3ccc(F)cc3)cn12 [Compound 33, 8-FLUORO-2-(4-FLUOROPHENYL)-6- [(5R,2S)-5-HYDROXYMETHYL OXOLAN- 2-YL]-5,6-DIHYDRO[1,3]DIAZOLO[1,2- C][1,3]DIAZIN-5-ONE] | 90 | – | – |
| 1 | O=c1n([C@H]2CC[C@@H](CO)O2)cc(F)c2nc(-c3ccc([N+](=O)[O-])cc3)cn12 [Compound 36, 8-FLUORO-2-(4-NITROPHENYL)-6- [(2R,5S)-5-HYDROXYMETHYL OXOLAN- 2-YL]-5,6-DIHYDRO[1,3]-DIAZOLO[1,2- C][1,3]DIAZIN-5-ONE] | > 100 | – | – |
| 0.25 | O=c1n([C@@H]2CO[C@H](CO)O2)ccc2nc(-c3ccc([N+](=O)[O-])cc3)cn12 [Compound 45, L2-(4-NITROPHENYL)-6-[(2S,4S)-2- HYDROXYMETHYL-1,3-DIOXOLAN-4-YL]- 5,6-DIHYDRO[1,3]DIAZOLO[1,2- C][1,3]DIAZIN-5-ONE] | 10 | – | IC50 (HIV [4]; [8]): 3 µM; CC50 [5]: 2 µM |
| – | O=c1n([C@@H]2CO[C@H](CO)O2)cc(F)c2nc(-c3ccc([N+](=O)[O-])cc3)cn12 [Compound 49] | – | – | IC50 (HIV-1): 0.005 µM; IC50 (HIV [4]; Human immunodeficiency virus 1, Jurkat, read-out: HIV IC50 (uM) Jurkat): 0.24 µM; IC50 (HIV [4]; [8]): 0.13 µM; IC50 (HIV [4]; Human immunodeficiency virus 1, MT4, read-out: HIV IC50 (uM) (MT-4)): 0.015 µM; CC50 [5]: 6.5 µM; CC50 (Cytotoxicity in PBMCs; [9]): < 10 µM |
| 0.4 | O=c1n([C@H]2CO[C@H](CO)O2)ccc2nc(-c3ccc([N+](=O)[O-])cc3)cn12 [Compound 53] | > 10 | – | – |
| 48 | O=c1n([C@H]2CO[C@H](CO)O2)cc(F)c2nc(-c3ccc(F)cc3)cn12 [Compound 55] | > 100 | – | – |
| – | CC(C)[C@H](N)C(=O)OCC1OC[C@H](n2ccc3nc(-c4ccc(F)cc4)cn3c2=O)O1 (some centres unmarked) [Compound 60, 2-AMINO-3-METHYL-BUTYRIC ACID 4-[2- (4-FLUORO-PHENYL)-5-OXO-IMIDAZO [1,2-C]PYRIMIDIN-6-YL]-[1,3]DIOXOLAN-2- YLMETHYL ESTER; HYDROCHLORIDE SALT] | – | – | IC50 (HIV [6]): 0.6 µM; CC50 (Cytotoxicity in PBMCs): > 10 µM |
| – | O=c1n([C@H]2CO[C@@H](CO)O2)ccc2nc(-c3ccccc3)cn12 [Compound 62, 6-(2-HYDROXYMETHYL-[1,3]DIOXOLAN- 4-YL)-2-PHENYL-6H-IMIDAZO[1,2-C]PYRIMIDIN-5-ONE] | – | – | IC50 (HIV [6]; PBMCs): 8 µM; CC50 (Cytotoxicity in PBMCs; [9]): > 10 µM |

| SMILES | IC50 (HIV [1]) [µM] | CC50 [2] [µM] | CC50 [3] [µM] | also measured |
| --- | --- | --- | --- | --- |
| O=c1n([C@H]2CO[C@@H](CO)O2)cc(F)c2nc(-c3ccc(F)cc3)cn12 (stereo in doubt) [Compound 48] | 0.026 | > 100 | > 100 | IC50 (HIV-1; [7]): 0.026 µM |
| O=c1n([C@H]2CO[C@@H](CO)O2)ccc2nc(-c3ccc(F)cc3)cn12 [Compound 44, 2-(4-FLUOROPHENYL)-6-[(2R,4R)-2- HYDROXYMETHYL-1,3-DIOXOLAN-4-YL]- 5,6-DIHYDRO[1,3]DIAZOLO[1,2- C][1,3]DIAZIN-5-ONE] | 0.0032 | > 100 | > 100 | IC50 (HIV-1; [7]): 0.003 µM |
| O=c1n([C@H]2CO[C@@H](CO)O2)ccc2nc(-c3ccc([N+](=O)[O-])cc3)cn12 [Compound 46, 2-(4-NITROPHENYL)-6-[(2R,4R)-2- HYDROXYMETHYL-1,3-DIOXOLAN-4-YL]- 5,6-DIHYDRO[1,3]DIAZOLO[1,2- C][1,3]DIAZIN-5-ONE] | 0.1 | > 100 | > 100 | IC50 (HIV-1; [7]): 0.1 µM |
| O=c1n([C@H]2CO[C@@H](CO)O2)cc(F)c2nc(-c3ccc([N+](=O)[O-])cc3)cn12 [Compound 50] | 0.44 | > 100 | > 100 | IC50 (HIV-1; [7]): 0.44 µM; IC50 (HIV [4]; [8]): 2.8 µM; CC50 [5]: > 10 µM |
| O=c1n([C@@H]2CO[C@@H](CO)O2)cc(F)c2nc(-c3ccc([N+](=O)[O-])cc3)cn12 [Compound 58] | 60 | > 100 | > 100 | IC50 (HIV-1): 60 µM |
